Results from ChEMBL document CHEMBL4364276, “Discovery of 4-phenyl-2H-benzo[b][1,4]oxazin-3(4H)-one derivatives as potent and orally active PI3K/mTOR dual inhibitors” (Eur J Med Chem, 2019).

How the values were obtained:
A-375 = assay: Antiproliferative activity against human A375 cells assessed as reduction in cell viability incubated for 72 hrs by MTT assay; type: functional, cell-based; settings: A-375, 72 h
HCT-116 = assay: Antiproliferative activity against human HCT116 cells assessed as reduction in cell viability incubated for 72 hrs by MTT assay; type: functional, cell-based; settings: HCT-116, 72 h
HeLa [1] = assay: Antiproliferative activity against human HeLa cells assessed as reduction in cell viability incubated for 72 hrs by MTT assay; type: functional, cell-based
HeLa [2] = assay: Antitumor activity against human HeLa cells xenografted in BALB/c nude mouse assessed as tumor growth inhibition at 20 mg/kg, ig administered for 30 days measured every 3 days during compound dosing relative to control; type: functional; settings: po, read-out: TGI
A549 [3] = assay: Antitumor activity against human A549 cells xenografted in BALB/c nude mouse assessed as tumor growth inhibition at 20 mg/kg, ig administered for 30 days measured every 3 days during compound dosing relative to control; type: functional; settings: A549, po, read-out: TGI
[4] = Toxicity in BALB/c mouse xenografted with human HeLa cells assessed as reduction in body weight at 20 mg/kg, ig administered for 30 days; type: organism-based; settings: in vivo, po, 720 h
[5] = Toxicity in BALB/c mouse xenografted with human A549 cells assessed as reduction in body weight at 20 mg/kg, ig administered for 30 days; type: organism-based; settings: in vivo, po, 720 h
MCF7 = assay: cells; settings: Homo sapiens, MCF7, 72 h
HepG2 = assay: cells; settings: Homo sapiens, HepG2, 72 h
A549 [6] = assay: cells; settings: Homo sapiens, A549, 72 h
[7] = molecular target: Serine/threonine-protein kinase mTOR (Homo sapiens, UniProt P42345); assay: Inhibition of recombinant human N-terminal FLAG-tagged mTOR (1362 to end residues) using Ulight-4E-BP1 as substrate incubated for 30 mins by fluorescence assay
[8] = molecular target: PI3-kinase p110-delta/p85-alpha (Homo sapiens, UniProt O00329); assay: Inhibition of recombinant human full length N-terminal GST-tagged PI3Kdelta (1 to 1044 residues)/PIK3R1 (1 to 724 residues) expressed in baculovirus expression system using PIP2 as substrate incubated for 2 hrs by ADP-Glo assay
Chain of PI3-kinase p110-delta/p85-alpha (P27986 whole entry, the tested form may be a part, canonical isoform): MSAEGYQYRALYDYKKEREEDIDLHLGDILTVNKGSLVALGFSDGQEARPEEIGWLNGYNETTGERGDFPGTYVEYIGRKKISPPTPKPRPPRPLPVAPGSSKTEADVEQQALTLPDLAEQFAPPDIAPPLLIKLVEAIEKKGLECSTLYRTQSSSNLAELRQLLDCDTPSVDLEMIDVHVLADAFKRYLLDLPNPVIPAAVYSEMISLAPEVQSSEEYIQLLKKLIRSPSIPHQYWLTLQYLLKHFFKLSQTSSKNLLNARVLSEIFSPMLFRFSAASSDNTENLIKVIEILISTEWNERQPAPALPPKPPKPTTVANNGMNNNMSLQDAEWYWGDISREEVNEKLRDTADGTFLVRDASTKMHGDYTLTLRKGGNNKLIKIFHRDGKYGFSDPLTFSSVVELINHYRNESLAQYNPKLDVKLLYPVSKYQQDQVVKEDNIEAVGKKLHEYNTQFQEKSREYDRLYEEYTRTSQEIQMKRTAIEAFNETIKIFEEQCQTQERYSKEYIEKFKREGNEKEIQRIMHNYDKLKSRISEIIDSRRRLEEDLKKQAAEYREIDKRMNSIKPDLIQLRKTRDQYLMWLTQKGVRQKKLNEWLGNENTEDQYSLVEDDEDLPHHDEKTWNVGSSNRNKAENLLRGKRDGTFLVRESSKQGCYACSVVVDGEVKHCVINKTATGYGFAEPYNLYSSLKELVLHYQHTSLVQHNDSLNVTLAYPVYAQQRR
Chain of PI3-kinase p110-delta/p85-alpha (O00329 whole entry, the tested form may be a part, canonical isoform): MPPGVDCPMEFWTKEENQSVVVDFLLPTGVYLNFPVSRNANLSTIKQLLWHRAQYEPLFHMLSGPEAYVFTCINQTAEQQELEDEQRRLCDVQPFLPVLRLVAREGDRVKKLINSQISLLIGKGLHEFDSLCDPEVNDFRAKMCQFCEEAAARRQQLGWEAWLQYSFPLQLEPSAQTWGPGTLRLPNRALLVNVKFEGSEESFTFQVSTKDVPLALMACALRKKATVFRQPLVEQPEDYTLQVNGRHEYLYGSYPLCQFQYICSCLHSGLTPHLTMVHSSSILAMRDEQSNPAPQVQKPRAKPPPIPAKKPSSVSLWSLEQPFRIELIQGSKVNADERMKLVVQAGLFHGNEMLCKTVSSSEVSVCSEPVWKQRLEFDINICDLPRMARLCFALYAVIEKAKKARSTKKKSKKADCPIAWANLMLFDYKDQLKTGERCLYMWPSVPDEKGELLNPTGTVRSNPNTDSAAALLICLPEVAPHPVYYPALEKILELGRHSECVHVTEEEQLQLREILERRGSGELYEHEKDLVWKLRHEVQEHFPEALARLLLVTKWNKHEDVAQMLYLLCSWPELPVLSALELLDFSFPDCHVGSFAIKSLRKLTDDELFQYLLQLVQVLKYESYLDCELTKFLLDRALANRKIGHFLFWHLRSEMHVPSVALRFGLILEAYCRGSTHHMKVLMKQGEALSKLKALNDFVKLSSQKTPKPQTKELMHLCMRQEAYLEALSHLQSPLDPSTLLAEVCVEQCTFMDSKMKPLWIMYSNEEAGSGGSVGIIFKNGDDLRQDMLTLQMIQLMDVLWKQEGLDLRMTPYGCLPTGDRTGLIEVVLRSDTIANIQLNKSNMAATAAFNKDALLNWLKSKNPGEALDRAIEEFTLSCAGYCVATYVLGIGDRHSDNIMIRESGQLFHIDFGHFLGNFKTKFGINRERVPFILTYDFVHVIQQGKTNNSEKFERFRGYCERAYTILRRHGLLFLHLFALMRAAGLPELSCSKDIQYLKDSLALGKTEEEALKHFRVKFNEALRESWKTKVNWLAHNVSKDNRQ

[9] = molecular target: Phosphatidylinositol 4,5-bisphosphate 3-kinase catalytic subunit alpha isoform (Homo sapiens, UniProt P42336); assay: Inhibition of recombinant human full length N-terminal GST-tagged PI3Kalpha (1 to 1068 residues)/PIK3R1 (1 to 724 residues) expressed in baculovirus expression system using PIP2 as substrate incubated for 1 hr by ADP-Glo assay
Chain of Phosphatidylinositol 4,5-bisphosphate 3-kinase catalytic subunit alpha isoform (P42336 whole entry, looked up, the tested form may be a part, canonical isoform): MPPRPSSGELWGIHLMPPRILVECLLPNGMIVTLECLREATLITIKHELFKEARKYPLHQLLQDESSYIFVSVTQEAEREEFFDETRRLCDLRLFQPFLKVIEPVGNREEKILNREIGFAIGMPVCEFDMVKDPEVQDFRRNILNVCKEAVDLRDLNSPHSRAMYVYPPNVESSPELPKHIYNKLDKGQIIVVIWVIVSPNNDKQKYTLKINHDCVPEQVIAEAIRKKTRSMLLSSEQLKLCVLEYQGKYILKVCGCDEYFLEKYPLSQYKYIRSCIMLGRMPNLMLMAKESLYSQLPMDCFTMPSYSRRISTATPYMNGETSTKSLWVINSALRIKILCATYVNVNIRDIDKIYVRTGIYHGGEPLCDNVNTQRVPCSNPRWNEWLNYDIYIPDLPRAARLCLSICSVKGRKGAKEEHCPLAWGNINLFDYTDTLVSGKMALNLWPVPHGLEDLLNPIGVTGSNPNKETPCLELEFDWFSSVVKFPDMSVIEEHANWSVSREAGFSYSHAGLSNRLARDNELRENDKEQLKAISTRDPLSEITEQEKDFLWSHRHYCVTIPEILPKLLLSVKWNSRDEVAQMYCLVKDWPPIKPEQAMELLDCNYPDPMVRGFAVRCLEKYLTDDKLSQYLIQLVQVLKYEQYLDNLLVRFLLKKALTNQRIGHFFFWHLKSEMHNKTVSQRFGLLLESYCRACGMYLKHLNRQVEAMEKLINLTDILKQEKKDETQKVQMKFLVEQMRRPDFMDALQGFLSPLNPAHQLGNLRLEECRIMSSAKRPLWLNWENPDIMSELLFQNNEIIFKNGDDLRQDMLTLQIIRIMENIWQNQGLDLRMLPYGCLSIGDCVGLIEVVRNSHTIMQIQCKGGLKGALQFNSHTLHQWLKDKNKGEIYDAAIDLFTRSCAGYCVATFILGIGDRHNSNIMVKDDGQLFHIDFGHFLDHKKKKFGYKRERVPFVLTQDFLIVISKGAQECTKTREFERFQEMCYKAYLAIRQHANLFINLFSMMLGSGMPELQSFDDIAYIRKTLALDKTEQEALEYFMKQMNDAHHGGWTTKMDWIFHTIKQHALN

| SMILES | IC50 (A-375) | IC50 (HCT-116) | IC50 (HeLa [1]) | IC50 (MCF7) | IC50 (HepG2) | IC50 (A549 [6]) | IC50 [7] | IC50 [8] | IC50 [9] | inhibition in vivo at 20 mg/kg (HeLa [2]) | inhibition in vivo at 20 mg/kg (A549 [3]) | Activity [4] | Activity [5] |
| --- | --- | --- | --- | --- | --- | --- | --- | --- | --- | --- | --- | --- | --- |
| COc1ncc(-c2ccc3c(c2)N(c2ccc(Cl)cc2)C(=O)CO3)cc1NS(=O)(=O)c1ccc(F)cc1 | 24.1 µM | 19.2 µM | 4.83 µM | 27.6 µM | 17.9 µM | 8.35 µM | 0.0126 µM | 0.018 µM | 0.022 µM |  |  |  |  |
| O=C1COc2ccc(-c3cnc(Cl)c(NS(=O)(=O)c4ccc(F)cc4)c3)cc2N1 | > 40 µM | > 40 µM | 15.6 µM | > 40 µM | > 40 µM | > 40 µM | 0.328 µM | 0.092 µM | 0.115 µM |  |  |  |  |
| COc1cccc(N2C(=O)COc3ccc(-c4cnc(Cl)c(NS(=O)(=O)c5ccc(F)cc5)c4)cc32)c1 | > 40 µM | > 40 µM | > 40 µM | > 40 µM | > 40 µM | 32.6 µM | > 1 µM | > 1 µM | > 1 µM |  |  |  |  |
| CC(C)N1C(=O)COc2ccc(-c3cnc(Cl)c(NS(=O)(=O)c4ccc(F)cc4)c3)cc21 | 25.5 µM | 18.9 µM | 5.38 µM | 26.6 µM | 21.5 µM | 5.1 µM | 0.0043 µM | 0.0038 µM | 0.0155 µM |  |  |  |  |
| O=C1COc2ccc(-c3ccc(O)cc3)cc2N1C1CCCCC1 | > 40 µM | > 40 µM | > 40 µM | > 40 µM | > 40 µM | > 40 µM | > 1 µM | > 1 µM | > 10 µM |  |  |  |  |
| O=C1COc2ccc(-c3cnc(Cl)c(NS(=O)(=O)c4ccc(F)cc4)c3)cc2N1C1CC1 | 21.8 µM | 12.4 µM | 7.18 µM | 16.7 µM | 8.51 µM | 4.33 µM | 0.267 µM | 0.062 µM | 0.086 µM |  |  |  |  |
| COc1ncc(-c2ccc3c(c2)N(c2ccccc2)C(=O)CO3)cc1NS(=O)(=O)c1ccc(F)cc1 | 15.2 µM | 18.8 µM | 1.53 µM | 8.87 µM | 14 µM | 3.49 µM | 0.0486 µM | 0.08 µM | 0.102 µM |  |  |  |  |
| COc1ccc(N2C(=O)COc3ccc(-c4cccc(NS(=O)(=O)c5ccc(F)cc5)c4)cc32)cc1 | 38.5 µM | 28.3 µM | 13.2 µM | 32.4 µM | 29.8 µM | 38.2 µM | > 1 µM | > 1 µM | > 1 µM |  |  |  |  |
| O=C1COc2ccc(-c3cccc(NS(=O)(=O)c4ccc(F)cc4)c3)cc2N1c1ccc(F)cc1 | > 40 µM | > 40 µM | > 40 µM | > 40 µM | > 40 µM | > 40 µM | > 1 µM | > 10 µM | > 1 µM |  |  |  |  |
| O=C1COc2ccc(-c3cnc(Cl)c(NS(=O)(=O)c4ccc(F)cc4)c3)cc2N1c1ccc(Cl)cc1 | 30.6 µM | 27.9 µM | > 40 µM | 32.8 µM | 33.9 µM | 21.6 µM | 0.0141 µM | 0.0032 µM | 0.002 µM |  |  |  |  |

Now from value to molecule, other results behind:

| IC50 (A-375) | IC50 (HCT-116) | IC50 (HeLa [1]) | IC50 (MCF7) | IC50 (HepG2) | IC50 (A549 [6]) | IC50 [7] | IC50 [8] | IC50 [9] | SMILES | inhibition in vivo at 20 mg/kg (HeLa [2]) | inhibition in vivo at 20 mg/kg (A549 [3]) | Activity [4] | Activity [5] |
| --- | --- | --- | --- | --- | --- | --- | --- | --- | --- | --- | --- | --- | --- |
| 0.58 µM | 1.7 µM | 1.17 µM | 0.45 µM | 4.04 µM | 1.08 µM |  |  |  | Cn1c(=O)n(-c2ccc(C(C)(C)C#N)cc2)c2c3cc(-c4cnc5ccccc5c4)ccc3ncc21 [DACTOLISIB] | 66.5% | 56.1% | Toxic | Toxic |
| 20.1 µM | > 40 µM | > 40 µM | 18.3 µM | > 40 µM | 32.1 µM | > 1 µM | > 1 µM | > 1 µM | O=C1COc2ccc(-c3cccc(NS(=O)(=O)c4ccc(F)cc4)c3)cc2N1 |  |  |  |  |
| > 40 µM | > 40 µM | > 40 µM | > 40 µM | > 40 µM | > 40 µM | > 1 µM | > 1 µM | > 1 µM | Cc1ccc(N2C(=O)COc3ccc(-c4cnc5ccccc5c4)cc32)cc1 |  |  |  |  |
| > 40 µM | > 40 µM | 19.7 µM | > 40 µM | > 40 µM | > 40 µM | > 1 µM | > 1 µM | > 1 µM | O=C1COc2ccc(-c3cnc4ccccc4c3)cc2N1C1CCCCC1 |  |  |  |  |
| > 40 µM | > 40 µM | > 40 µM | > 40 µM | > 40 µM | > 40 µM | > 1 µM | > 1 µM | > 1 µM | COc1ccc(N2C(=O)COc3ccc(-c4cnc5ccccc5c4)cc32)cc1 |  |  |  |  |
| > 40 µM | > 40 µM | > 40 µM | 30.2 µM | > 40 µM | > 40 µM | > 1 µM | > 1 µM | > 1 µM | O=C1COc2ccc(-c3ccc(O)cc3)cc2N1c1ccc(F)cc1 |  |  |  |  |
| > 40 µM | > 40 µM | > 40 µM | 26.2 µM | > 40 µM | > 40 µM | > 1 µM | > 1 µM | > 1 µM | Cc1ccc(N2C(=O)COc3ccc(-c4ccc(O)cc4)cc32)cc1 |  |  |  |  |
| > 40 µM | 39.6 µM | > 40 µM | > 40 µM | > 40 µM | > 40 µM | > 1 µM | > 1 µM | > 1 µM | O=C1COc2ccc(-c3ccc(O)cc3)cc2N1c1ccc(Cl)cc1 |  |  |  |  |
| > 40 µM | > 40 µM | 6.1 µM | 30.1 µM | > 40 µM | 24.6 µM | 0.873 µM | 0.406 µM | > 1 µM | COc1ncc(-c2ccc3c(c2)N(C2CCCCC2)C(=O)CO3)cc1NS(=O)(=O)c1ccc(F)cc1 |  |  |  |  |
| > 40 µM | 36.1 µM | > 40 µM | > 40 µM | 32.7 µM | > 40 µM | > 1 µM | > 1 µM | > 1 µM | O=C1COc2ccc(-c3cnc4ccccc4c3)cc2N1c1ccc(Cl)cc1 |  |  |  |  |
